Here are results for two compounds from ChEMBL document CHEMBL3046275, “EBHU18, a novel derivative of fatty acid bile acid conjugates, prevents cholesterol gallstone formation in experimental mice” (Med Chem Res, 2012).

The source made the active and inactive calls. No cut-off for these calls is given here.

The test system of data set [1] is Mus musculus. The experiment in a line: Reduction of lithogenic diet-induced gallstone formation in Mus musculus C57BL/6 (mouse) at 10 mg/kg/day, po followed by lithogenic diet feeding for 8 weeks by infrared photoacoustic spectroscopic analysis (reference value: 1.53 +/- 0.63 g). The data set is classed as functional.
Data set [2] concerns Mus musculus. In words: Toxicity in lithogenic diet-fed Mus musculus C57BL/6 (mouse) assessed as change in body weight at 10 mg/kg/day, po followed by lithogenic diet feeding for 8 weeks (reference value: 30.82 +/- 2.88 g). Format: organism-based. Further details: route oral. The note with it: in vivo, 1344 h.
Data set [3] concerns Mus musculus. In words: Hepatoprotective activity in lithogenic diet-fed Mus musculus C57BL/6 (mouse) assessed as decrease in serum ALT level at 10 mg/kg/day, po after 8 weeks relative to untreated control. The data set is classed as functional, organism-based.
Data set [4] relates to Mus musculus. In words: Protection against lithogenic diet-induced gallstone formation in Mus musculus C57BL/6 (mouse) at 10 mg/kg/day, po after 8 weeks by infrared photoacoustic spectroscopic analysis relative to untreated control. Format: functional, organism-based.
Data set [5] deals with Mus musculus. The experiment in a line: Toxicity in lithogenic diet-fed Mus musculus C57BL/6 (mouse) assessed as change in body weight at 10 mg/kg/day, po after 8 weeks. Format: organism-based. Also on record: route oral. Particulars: in vivo, 1344 h.
Data set [6] has as its system Mus musculus. In words: Hepatoprotective activity in lithogenic diet-fed Mus musculus C57BL/6 (mouse) assessed as decrease in serum total cholesterol level at 10 mg/kg/day, po followed by lithogenic diet feeding for 8 weeks (reference value: 2.24 +/- 0.27 mmol/l). Format: functional.
Data set [7] relates to Mus musculus. The experiment in a line: Hepatoprotective activity in lithogenic diet-fed Mus musculus C57BL/6 (mouse) assessed as decrease in serum triglyceride level at 10 mg/kg/day, po after 8 weeks relative to untreated control. Format: functional, organism-based.
The subject of data set [8] is Mus musculus. The experiment in a line: Hepatoprotective activity in lithogenic diet-fed Mus musculus C57BL/6 (mouse) assessed as decrease in serum triglyceride level at 10 mg/kg/day, po followed by lithogenic diet feeding for 8 weeks (reference value: 1.01+/- 0.15 mmol/l). Format: functional.
For data set [9], the system named is Mus musculus. In words: Hepatoprotective activity in lithogenic diet-fed Mus musculus C57BL/6 (mouse) assessed as decrease in serum ALT level at 10 mg/kg/day, po followed by lithogenic diet feeding for 8 weeks (reference value: 42.6 +/- 7.63 IU/L). Format: functional.
Data set [10] relates to Mus musculus. The experiment in a line: Hepatoprotective activity in lithogenic diet-fed Mus musculus C57BL/6 (mouse) assessed as decrease in serum total cholesterol level at 10 mg/kg/day, po after 8 weeks relative to untreated control. The data set is classed as functional, organism-based.
Data set [11] concerns Mus musculus. In words: Reduction of lithogenic diet-induced fatty liver formation in Mus musculus C57BL/6 (mouse) at 10 mg/kg/day, po followed by lithogenic diet feeding for 8 weeks by hematoxylin-eosin staining relative to untreated control. Format: functional, organism-based.
Data set [12] relates to Mus musculus. The experiment in a line: Toxicity in lithogenic diet-fed Mus musculus C57BL/6 (mouse) assessed as change in body weight at 0.5 mg/kg/day, po followed by lithogenic diet feeding for 8 weeks (reference value: 30.82 +/- 2.88 g). Format: organism-based. Also on record: route oral. Particulars: in vivo, 1344 h.
The subject of data set [13] is Mus musculus. In words: Reduction of lithogenic diet-induced gallstone formation in Mus musculus C57BL/6 (mouse) at 3 mg/kg/day, po followed by lithogenic diet feeding for 8 weeks by infrared photoacoustic spectroscopic analysis (reference value: 1.53 +/- 0.63 g). The data set is classed as functional.
Data set [14] concerns Mus musculus. In words: Hepatoprotective activity in lithogenic diet-fed Mus musculus C57BL/6 (mouse) assessed as decrease in serum triglyceride level at 0.5 to 3 mg/kg/day, po after 8 weeks relative to untreated control. Format: functional, organism-based.
Data set [15] relates to Mus musculus. The experiment in a line: Hepatoprotective activity in lithogenic diet-fed Mus musculus C57BL/6 (mouse) assessed as decrease in serum triglyceride level at 3 mg/kg/day, po followed by lithogenic diet feeding for 8 weeks (reference value: 1.01+/- 0.15 mmol/l). Format: functional.
The test system of data set [16] is Mus musculus. In words: Hepatoprotective activity in lithogenic diet-fed Mus musculus C57BL/6 (mouse) assessed as decrease in serum triglyceride level at 0.5 mg/kg/day, po followed by lithogenic diet feeding for 8 weeks (reference value: 1.01+/- 0.15 mmol/l). Format: functional.
The subject of data set [17] is Mus musculus. In words: Hepatoprotective activity in lithogenic diet-fed Mus musculus C57BL/6 (mouse) assessed as decrease in serum total cholesterol level at 0.5 mg/kg/day, po followed by lithogenic diet feeding for 8 weeks (reference value: 2.24 +/- 0.27 mmol/l). Format: functional.
Data set [18] has as its system Mus musculus. In words: Hepatoprotective activity in lithogenic diet-fed Mus musculus C57BL/6 (mouse) assessed as decrease in serum ALT level at 0.5 to 3 mg/kg/day, po after 8 weeks relative to untreated control. The data set is classed as functional, organism-based.
The test system of data set [19] is Mus musculus. In words: Hepatoprotective activity in lithogenic diet-fed Mus musculus C57BL/6 (mouse) assessed as decrease in serum ALT level at 0.5 mg/kg/day, po followed by lithogenic diet feeding for 8 weeks (reference value: 42.6 +/- 7.63 IU/L). The data set is classed as functional.
In data set [20] the test system is Mus musculus. In words: Hepatoprotective activity in lithogenic diet-fed Mus musculus C57BL/6 (mouse) assessed as decrease in serum total cholesterol level at 0.5 to 3 mg/kg/day, po after 8 weeks relative to untreated control. Format: functional, organism-based.
Data set [21] concerns Mus musculus. The experiment in a line: Protection against lithogenic diet-induced gallstone formation in Mus musculus C57BL/6 (mouse) at 0.5 mg/kg/day, po after 8 weeks by infrared photoacoustic spectroscopic analysis relative to untreated control. Format: functional, organism-based.
Data set [22] deals with Mus musculus. In words: Reduction of lithogenic diet-induced fatty liver formation in Mus musculus C57BL/6 (mouse) at 0.5 to 3 mg/kg/day, po followed by lithogenic diet feeding for 8 weeks by hematoxylin-eosin staining relative to untreated control. The data set is classed as functional, organism-based.
Data set [23] concerns Mus musculus. The experiment in a line: Hepatoprotective activity in lithogenic diet-fed Mus musculus C57BL/6 (mouse) assessed as decrease in serum total cholesterol level at 3 mg/kg/day, po followed by lithogenic diet feeding for 8 weeks (reference value: 2.24 +/- 0.27 mmol/l). Format: functional.
Data set [24] concerns Mus musculus. In words: Hepatoprotective activity in lithogenic diet-fed Mus musculus C57BL/6 (mouse) assessed as decrease in serum ALT level at 3 mg/kg/day, po followed by lithogenic diet feeding for 8 weeks (reference value: 42.6 +/- 7.63 IU/L). Format: functional.
For data set [25], the system named is Mus musculus. The experiment in a line: Reduction of lithogenic diet-induced fatty liver formation in Mus musculus C57BL/6 (mouse) at 0.5 to 3 mg/kg/day, po after 8 weeks by hematoxylin-eosin staining relative to untreated control. The data set is classed as functional, organism-based.
The subject of data set [26] is Mus musculus. The experiment in a line: Reduction of lithogenic diet-induced gallstone formation in Mus musculus C57BL/6 (mouse) at 0.5 mg/kg/day, po followed by lithogenic diet feeding for 8 weeks by infrared photoacoustic spectroscopic analysis (reference value: 1.53 +/- 0.63 g). The data set is classed as functional.
For data set [27], the system named is Mus musculus. In words: Toxicity in lithogenic diet-fed Mus musculus C57BL/6 (mouse) assessed as change in body weight at 0.5 to 3 mg/kg/day, po after 8 weeks. Format: organism-based. Also on record: route oral. The note with it: in vivo, 1344 h.
The subject of data set [28] is Mus musculus. In words: Protection against lithogenic diet-induced gallstone formation in Mus musculus C57BL/6 (mouse) at 3 mg/kg/day, po after 8 weeks by infrared photoacoustic spectroscopic analysis relative to untreated control. Format: functional, organism-based.
For data set [29], the system named is Mus musculus. In words: Toxicity in lithogenic diet-fed Mus musculus C57BL/6 (mouse) assessed as change in body weight at 3 mg/kg/day, po followed by lithogenic diet feeding for 8 weeks (reference value: 30.82 +/- 2.88 g). Particulars: in vivo, 1344 h. Also on record: route oral. Format: organism-based.

For the compound `C[C@H](CCC(=O)O)[C@H]1CC[C@H]2[C@@H]3[C@@H](O)C[C@@H]4C[C@H](O)CC[C@]4(C)[C@H]3CC[C@]12C` [URSODIOL], the Activity was 1.41 g with Mus musculus [1]; 31.76 g in the data set with Mus musculus [2]; “Non-toxic” in the data set with Mus musculus [5]; 2.16 mmol/L in the data set with Mus musculus [6]; 0.75 mmol/L in the data set on Mus musculus [8]; 38 IU/L in the data set on Mus musculus [9]. Besides, the outcome with Mus musculus [3], in the data set with Mus musculus [7] and in the data set on Mus musculus [10] was Active. Moreover, the result in the data set on Mus musculus [4] and with Mus musculus [11] was inactive.

Take `CCCCCCCCCCCCCCCCCCCC(=O)NCCCCC(NC(=O)CC[C@@H](C)[C@H]1CC[C@H]2[C@@H]3C(O)C[C@@H]4C[C@H](O)CC[C@]4(C)[C@H]3C[C@H](O)[C@]12C)C(=O)O` (some centres undefined): the Activity with Mus musculus [12] is 31.89 g; with Mus musculus [13], 0.96 g; in the data set with Mus musculus [15] it was 0.74 mmol/L; with Mus musculus [16] it was 0.76 mmol/L; in the data set with Mus musculus [17], 2.09 mmol/L; with Mus musculus [19], 34.8 IU/L. Moreover, the Activity is on record as 2.04 mmol/L in the data set on Mus musculus [23]; 36.5 IU/L with Mus musculus [24]; 1.02 g in the data set with Mus musculus [26]; “Non-toxic” with Mus musculus [27]; 31.74 g with Mus musculus [29]. The outcome with Mus musculus [14], in the data set with Mus musculus [18], with Mus musculus [20], with Mus musculus [22], in the data set with Mus musculus [25] and with Mus musculus [28] was Active. Further, in the data set on Mus musculus [21], the outcome was inactive.
